Experimental data from patent publication US7473692B2, “Sulfonamide derivatives as D3-receptor ligands” (Richter Gedeon Vegyeszeti Gyar Rt., priority 2001, dated 2009).
Counter-ions that a name gives are not always drawn.

What was measured:
[1] = target: T1, rat recombinant D3 receptors expressed in Sf9 cells (Rattus norvegicus, UniProt P19020); experiment: D3 receptor binding ([3H]-spiperone); conditions: [3H]-spiperone 0.4 nM; non-specific binding with haloperidol 10 μM
T1 construct: purchased Research Biochemical International D-181; host or cells: Sf9 cells
T1 sequence (P19020 whole entry): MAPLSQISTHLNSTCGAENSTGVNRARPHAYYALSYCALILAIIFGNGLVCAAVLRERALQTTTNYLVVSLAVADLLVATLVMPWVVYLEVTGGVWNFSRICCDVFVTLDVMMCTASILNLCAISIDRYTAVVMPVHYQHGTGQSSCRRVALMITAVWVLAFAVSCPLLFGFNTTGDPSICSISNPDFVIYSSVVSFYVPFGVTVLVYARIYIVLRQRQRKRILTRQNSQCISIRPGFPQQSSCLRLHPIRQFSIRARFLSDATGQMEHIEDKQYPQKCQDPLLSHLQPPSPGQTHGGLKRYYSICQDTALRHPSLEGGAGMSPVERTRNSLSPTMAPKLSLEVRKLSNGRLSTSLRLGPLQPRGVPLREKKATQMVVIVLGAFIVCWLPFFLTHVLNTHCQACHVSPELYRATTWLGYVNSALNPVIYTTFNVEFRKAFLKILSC
Experimental: Binding study was carried out on rat recombinant D3 receptors expressed in Sf9 cells using [^3H]-spiperone (0.4 nM) as ligand and haloperidol (10 μM) for determination of non-specific binding.

[2] = target: T2, D2 receptor, rat striatal tissue (Rattus norvegicus, UniProt P61169); experiment: D2 receptor binding ([3H]-spiperone); conditions: [3H]-spiperone 0.5 nM, non-specific binding with (±)-sulpiride 10 μM
T2 construct: from tissue; host or cells: rat striatal tissue
T2 sequence (P61169 whole entry): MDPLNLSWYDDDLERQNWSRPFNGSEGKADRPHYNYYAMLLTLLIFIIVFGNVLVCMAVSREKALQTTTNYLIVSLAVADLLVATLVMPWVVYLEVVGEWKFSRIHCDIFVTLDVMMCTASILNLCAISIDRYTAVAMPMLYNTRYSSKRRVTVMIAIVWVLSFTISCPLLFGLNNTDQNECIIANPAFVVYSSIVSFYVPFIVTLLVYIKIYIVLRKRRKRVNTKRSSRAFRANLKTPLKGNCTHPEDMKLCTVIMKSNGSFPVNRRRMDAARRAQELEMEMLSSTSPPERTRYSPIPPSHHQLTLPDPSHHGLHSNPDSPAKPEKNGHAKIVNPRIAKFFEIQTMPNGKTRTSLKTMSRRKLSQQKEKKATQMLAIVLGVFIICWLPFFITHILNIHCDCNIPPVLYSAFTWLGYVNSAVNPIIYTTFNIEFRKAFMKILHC
Experimental: Binding of [^3H]-spiperone (0.5 nM) to rat striatal tissue was measured according to the method of Seeman (J. Neurochem., 1984, 43 221-235). The non-specific binding was determined in the presence of (±)-sulpiride (10 μM).

IC50 [1]	IC50 [2]	melting point	SMILES
2.8 nM	66 nM		O=S(=O)(N[C@H]1CC[C@H](CCN2CCC(Oc3cccc(C(F)(F)F)c3)CC2)CC1)c1cccnc1 [compound 70001875, Trans-N-(4-{2-[4-(3-trifluoromethyl-phenoxy)-piperidin-1-yl]-ethyl}-cyclohexyl)-3-pyridinesulfonamide]
		243 to 246 °C	COc1cc(-c2ccccc2)ccc1N1CCN(CC[C@H]2CC[C@H](NS(=O)(=O)N(C)C)CC2)CC1 (as salt: hydrochloride) [compound 70001488, Trans-N′-(4-{2-[4-(3-methoxy-biphenyl-4-yl)-piperazin-1-yl]-ethyl}-cyclohexyl)-N,N-dimethyl]
2.5 nM	102 nM		CCCCS(=O)(=O)N[C@H]1CC[C@H](CCN2CCC(Nc3cccc(C(F)(F)F)c3)CC2)CC1 [compound 70001588, Trans-N-(4-{2-[4-(3-trifluoromethyl-phenylamino)-piperidin-1-yl]-ethyl}-cyclohexyl)-buthanesulfonamide]
0.6 nM	110 nM		CCCCS(=O)(=O)N[C@H]1CC[C@H](CCN2CCN(c3cccc(C(F)(F)F)c3)CC2)CC1 [compound 70001596, Trans-N-(4-{2-[4-(3-trifluoromethyl-phenyl)-piperazin-1-yl]-ethyl}-cyclohexyl)-buthanesulfonamide]
3.9 nM	345 nM		O=S(=O)(N[C@H]1CC[C@H](CCN2CCC(Cc3cccc(F)c3)CC2)CC1)c1ccc(Cl)cc1 [compound 70001686, Trans-4-chloro-N-(4-{2-[4-(3-fluoro-phenylmethyl)-piperidin-1-yl]-ethyl}-cyclohexyl)-benzenesulfonamide]
2 nM	65 nM		N#Cc1cc(N2CCN(CC[C@H]3CC[C@H](NS(=O)(=O)c4ccc(Cl)cc4)CC3)CC2)cc(C(F)(F)F)c1 [compound 70001492, Trans-4-chloro-N-(4-{2-[4-(3-cyano-5-trifluoromethyl-phenyl)-piperazin-1-yl]-ethyl}-cyclohexyl)-benzenesulfonamide]
1 nM	109 nM		O=S(=O)(CCCN1CCOCC1)N[C@H]1CC[C@H](CCN2CCN(c3cccc(C(F)(F)F)c3)CC2)CC1 [compound 70001934, Trans-N-(4-{2-[4-(3-trifluoromethyl-phenyl)-piperazin-1-yl]-ethyl}-cyclohexyl)-4-morpholinepropanesulfonamide]
4.3 nM	245 nM		COc1cc(-c2ccccc2)ccc1N1CCN(CC[C@H]2CC[C@H](NS(=O)(=O)N(C)C)CC2)CC1 [compound 70001488, Trans-N′-(4-{2-[4-(3-methoxy-biphenyl-4-yl)-piperazin-1-yl]-ethyl}-cyclohexyl)-N,N-dimethyl]
0.3 nM	29 nM		O=S(=O)(N[C@H]1CC[C@H](CCN2CCN(c3cccc(C(F)(F)F)c3)CC2)CC1)c1cccnc1 [compound 70001935, Trans-N-(4-{2-[4-(3-trifluoromethyl-phenyl)-piperazin-1-yl]-ethyl}-cyclohexyl)-3-pyridinesulfoamide]
5.5 nM	2590 nM		CCCCS(=O)(=O)N[C@H]1CC[C@H](CCN2CCN(c3ccc(-c4ccccc4)cc3OC)CC2)CC1 [compound 70001485, Trans-N-(4-{2-[4-(3-methoxy-biphenyl-4-yl)-piperazin-1-yl]-ethyl}-cyclohexyl)-buthanesulfonamide]
5.3 nM	128 nM		N#Cc1cc(N2CCN(CC[C@H]3CC[C@H](NS(=O)(=O)c4ccc(Cl)s4)CC3)CC2)cc(C(F)(F)F)c1 [compound 70001766, Trans-5-chloro-N-(4-{2-[4-(3-cyano-5-trifluoromethyl-phenyl)-piperazin-1-yl]-ethyl}-cyclohexyl)-2-thiophenesulfonamide]
1.5 nM	290 nM		CN(C)S(=O)(=O)N[C@H]1CC[C@H](CCN2CCN(c3cc(C#N)cc(C(F)(F)F)c3)CC2)CC1 [compound 70001788, Trans-N′-(4-{2-[4-(3-cyano-5-trifluoromethyl-phenyl)-piperazin-1-yl]-ethyl}-cyclohexyl)-N,N-dimethyl-sulfamide]
3 nM	16 nM		O=S(=O)(N[C@H]1CC[C@H](CCN2CCC(Nc3cccc(C(F)(F)F)c3)CC2)CC1)c1ccc(Cl)cc1 [compound 70001589, Trans-4-chloro-N-(4-{2-[4-(3-trifluoromethyl-phenylamino)-piperidin-1-yl]-ethyl}-cyclohexyl)-benzenesulfonamide]
